Measured values published in US12023323B2, “Carbohydrate-binding small molecules with antiviral activity” (priority 2018, dated 2024).
Where two headings read alike, the source gives them in different places.

What was measured:
N154Q mutant ZIKV RVPs = format: cell-based, Zika virus; conditions: Vero cells
ZIKV GFP RVPs [1] = assay: microbe, parasite or virus in culture; conditions: Zika virus, Vero, Vero cells
ZIKV GFP RVPs [2] = tested on: ZIKV GFP RVPs
[3] = Cellular toxicity, CellTiter-Glo, Vero cells; conditions: African green monkey
[4] = 1H NMR titration with octyloxy pyranoside β-Man; format: binding; conditions: NMR titrations in CD2Cl2 at 298 K, 1:1 binding
[5] = 1H NMR titration with octyloxy pyranoside α-Man; format: binding; conditions: NMR titrations in CD2Cl2 at 298 K, 1:1 binding
[6] = 1H NMR titration with octyloxy pyranoside α-Glc; format: binding; conditions: CD2Cl2, 298 K, 1:1 binding
[7] = NMR dilution experiments for dimerization; format: physicochemical; conditions: dilution experiments in CD2Cl2
[8] = Table 1, anti-ZIKV assay

Row | Structure (SMILES) | inhibition of N154Q mutant RVPs in words (N154Q mutant ZIKV RVPs) | IC50 (ZIKV GFP RVPs [1]; Table 1, compounds 30 min before ZIKV RVPs, GFP+ cells 72 h postinfection) [µM] | anti-ZIKV activity in words (ZIKV GFP RVPs [2]; Vero cells, ZIKV RVPs) | CC50 at 72 h [3] [µM] | Ka (M^−1) with β-Man [4] [M⁻¹] | Ka (M^−1) with α-Man [5] [M⁻¹] | Ka with α-Glc [6] [M⁻¹] | IC50 (ZIKV GFP RVPs [1]; Table 3, ZIKV RVPs, average of at least two independent measurements) [µM] | dimerization in words [7] | IC50 relative to regioisomer (ZIKV GFP RVPs [2]; SCR023 vs SCR022, SCR017 vs SCR001) | therapeutic index (TC50/IC50) (ZIKV GFP RVPs [2]; Table 3, Vero cells) | IC50 (ZIKV GFP RVPs [2]; Table 3, Vero cells, ZIKV RVPs, average of at least two independent measurements) [µM] | solubility (words printed in the IC50 column) [8] | anti-ZIKV activity in words (ZIKV GFP RVPs [2])
1 | Cc1ccc(C(=O)Nc2ccc(S(=O)(=O)O)c3cc(S(=O)(=O)O)cc(S(=O)(=O)O)c23)cc1NC(=O)c1cccc(NC(=O)Nc2cccc(C(=O)Nc3cc(C(=O)Nc4ccc(S(=O)(=O)O)c5cc(S(=O)(=O)O)cc(S(=O)(=O)O)c45)ccc3C)c2)c1 [Suramin, reference compound] | inhibited | 44 ± 4.19 | dose dependent inhibition of ZIKV infection | > 200 |  |  |  |  |  |  |  |  |  | 
2 | Oc1cccc(CNCc2cc(CNCc3cccc(O)c3)cc(-c3cc(CNCc4cccc(O)c4)cc(CNCc4cccc(O)c4)c3)c2)c1 [SCR023, 3,3′,3″,3′″-((([1,1′-biphenyl]-3,3′,5,5′-tetrayltetrakis(methylene))tetrakis(azanediyl))tetrakis(methylene))tetraphenol] |  |  | weaker inhibition | 207 ± 79 | 250 | 150 | 310 | < 20 | Dimerization was observed | at least four times higher | 20 | 10.6 ± 5.9 |  | 
3 | O=C(NCc1cc(CNC(=O)c2ccco2)cc(-c2cc(CNC(=O)c3ccco3)cc(CNC(=O)c3ccco3)c2)c1)c1ccco1 [SCR007, N,N′,N′″-([1,1′-biphenyl]-3,3′,5,5′-tetrayltetrakis(methylene))tetrakis(furan-2-carboxamide)] |  |  |  |  |  |  |  |  |  |  |  |  | not soluble | not effective
